Results reported in patent publication US9248114B2, “Use of 2,5-dihydroxybenzene compounds and derivatives for the treatment of hematological dyscrasias and cancer of an organ” (Action Medicines, S.L., priority 2006, dated 2016).

Legend:
bFGF-induced fibrosis = bFGF-induced fibrosis around subcutaneously implanted gelatin sponges in rats; format: in vivo, Sprague-Dawley rats; conditions: 100 μM in gelatin sponge with bFGF and heparin, subcutaneous, 7 days
Experimental: Sterile gelatin sponges (1 mm^3; Curaspon Dental, Clinimed Holding, Zwanenburg, The Netherlands) were subcutaneously implanted in the dorsal region of the neck in Sprague-Dawley rats after the induction of intraperitoneal anesthesia. The animals were split into two groups: group A, the sponges were moistened with 200 μl of saline solution which contained 25 μg/ml of heparin and 10 μg/ml of basic FGF (bFGF); group B, the sponges were moistened in the same solution as in group A, but which solution further contained 2,5-dihydroxybenzoate (100 μM). After 7 days, the sponges and the surrounding subcutaneous fat were removed and histologically analyzed.

rat glioma C6 cells = assay: Rat glioma C6 cell proliferation (crystal violet staining); format: cell-based; conditions: 48 h
Experimental: The cell line used was rat glioma C6 cells. The cells were cultured as previously described (Cuevas P et al. Neurol Res, 2005). The cells were cultured as adherent cells in Dulbecco's modified Eagle's medium, supplemented with 7.5% (v/v) of fetal bovine serum, 10 μg/ml of streptomycin and 10 units/ml of penicillin. The tumor cells were seeded in 24-well plates at a density of 10,000 cells/well, and were incubated at 37° C. in a humidified chamber with 5% CO2. Once adhered, the cells were treated or not (controls) with 2,5-dihydroxybenzoate at 100, 200, 500 or 1000 μM and they were allowed to proliferate for 48 h. After this time the glioma cell proliferation was evaluated by means of staining the fixed cells with crystal violet. The number of cells is proportional to the amount of retained dye, which was spectrophotometrically determined by measuring the absorbance at 595 nm once the dye was extracted from the cells.
(§1) The cell line used was the C6 cell line and the experiment was carried out as described in Example 2. Once adhered, the cells were treated or not (controls) with increasing concentrations of 2,5-DHC (10, 25, 50 and 100 μM) and they were allowed to proliferate for 48 h. After this time the glioma cell proliferation was evaluated by means of staining the fixed cells with crystal violet. The number of cells is proportional to the amount of retained dye, which was determined spectrophotometrically by measuring absorbance at 595 nm once the dye was extracted from the cells.
as §1, with “examples 2 and 3.” for “Example 2.”, “(5A-2HBS) (500 μM) or (2A-5HBS) (500” for “increasing concentrations of 2,5-DHC (10, 25, 50 and 100”, “measuring the” for “measuring”

[1] = target: T1, fibroblast growth factor-1 (FGF-1) (Homo sapiens, UniProt P05230); assay: Mitogenesis induced by FGF-1 in quiescent Balb/c 3T3 fibroblast cultures; format: cell-based; conditions: quiescent Balb/c 3T3 fibroblasts
T1 sequence (P05230 whole entry, species assumed): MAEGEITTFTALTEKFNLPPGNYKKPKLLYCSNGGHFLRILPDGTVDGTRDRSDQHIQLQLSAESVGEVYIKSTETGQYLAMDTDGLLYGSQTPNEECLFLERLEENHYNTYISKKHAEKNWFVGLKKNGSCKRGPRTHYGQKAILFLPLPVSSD
Experimental: The evaluated compounds were used in the form of potassium salt, except in the first case which used calcium salt. The experiments were carried out as described in Fernandez-Tornero C et al. J Biol Chem, 2003.

[2] = target: T1, fibroblast growth factor-1 (FGF-1); assay: Crystal diffraction of complexes with FGF-1; conditions: co-crystal, electron density contoured at 1σ; acetoxyl groups conserved on binding
Experimental: Based on the crystal diffraction of the FGF-1:2-acetoxy-5-hydroxybenzene sulfonic acid, FGF-1:5-acetoxy-2-hydroxybenzene sulfonic acid and FGF-1:2,5-diacetoxybenzene sulfonic acid complexes, the structures of the complexes were calculated and represented. FIGS. 13, 14 and 15, which show the surface of the dyed protein according to its electrostatic potential (light grey, negative charge; dark grey, positive charge; white, regions with no charge), show the manner in which 2-acetoxy-5-hydroxybenzene sulfonic acid, 5-acetoxy-2-hydroxybenzene sulfonic acid and 2,5-diacetoxybenzene sulfonic acid interact, respectively, with FGF-1.

[3] = system: subcutaneous gliomas (rat C6 glioma cells); assay: Progression of established subcutaneous C6 gliomas in rats; format: in vivo; conditions: i.p. 100 mg/kg/day for 10 days; for average size (volume) of subcutaneous gliomas: treatment started 5 days after implantation
Experimental: Rat C6 glioma cells were cultured as previously described (Cuevas P et al. Neurol Res, 2005). The C6 cells cultured to confluence in 75 cm^2 flasks were removed and implanted under the abdominal skin in anesthetized rats. The existence of a tumor in the implantation area was observed five days after the implantation of the tumor cells. Only the rats in which the existence of a tumor was observed were randomly assigned to be treated with daily intraperitoneal injections of 2,5-dihydroxybenzene sulfonate (DHBS; 100 mg/kg/day), 2,5-diacetoxybenzene sulfonate (DABS; 100 mg/kg/day) or the carrier (0.9% NaCl). After 10 days of treatment, the subcutaneous gliomas were removed and their volume was calculated according to the formula V=4/3π·(L/2)·(A/2)^2 (in mm^3) where L is the larger diameter and A is the smaller diameter, both expressed in mm.

[4] = system: tumor cells of subcutaneous gliomas; assay: Apoptosis in sections of established subcutaneous gliomas in rats; format: in vivo; conditions: 100 mg/kg/day i.p. for 10 days
Text: Tumor cells elude the programmed cell death process or apoptosis that normal cells experience. Apoptosis induction in tumor cells is one way to confront the development of a tumor. To evaluate the effect of potassium 2,5-dihydroxybenzene sulfonate […] on tumor cell apoptosis, 6 μm thick sections of the subcutaneous gliomas described in example 4 were made. The sections were stained with hematoxylin and eosin and observed at a magnification of 313 times using immersion oil. In these conditions, cell apoptosis is shown by the existence of apoptotic bodies appearing as strongly chromogenic granules in the cell nucleus which is frequently fragmented.

[5] = system: human prostate cancer PC-3 cells; assay: Subcutaneous PC-3 prostate tumor implantation model in athymic mice; format: in vivo, athymic mice (Nu/Nu); conditions: 100 mg/kg daily i.p. for 15 days
Experimental: 5×10^6 human prostate cancer PC-3 cells were subcutaneously injected in male athymic mice (Nu/Nu) of 6-8 weeks of age and weighing 20-26 g. Ten days after the implantation of the tumor cells, the mice were randomly split into two groups: one of them received a daily injection of potassium 2,5-diacetoxybenzene sulfonate (DABS) by intraperitoneal route at a dose of 100 mg/kg dissolved in saline (0.9% NaCl) whereas the other group received a daily injection of carrier (saline). The treatments were administered for 15 days. The volumes of the tumors induced by the implantation of PC-3 cells were measured through the skin on alternating days using a Vernier caliper. The volume was calculated using the formula V=(D×2d)/2, where D is the larger diameter in mm, d is the smaller diameter in mm and V is the volume in mm3. At the end of treatment, the mice were sacrificed and the tumors were weighed.

Compound | rat glioma cell proliferation (rat glioma C6 cells; 500 μM) | mitogenesis induced by FGF-1 [1] | binding site on FGF-1 in the crystal complex [2] | average size (volume) of subcutaneous gliomas [3] | other results
O=C(O)c1cc(O)ccc1O [2,5-dihydroxybenzoate, 2,5-dihydroxybenzoic acid] | – | – | – | – | bFGF-induced fibrosis (fibroblasts in septa of connective tissue of adipose tissue) (bFGF-induced fibrosis): reduces bFGF-induced fibrosis; rat glioma C6 cell proliferation, significance of the effect (rat glioma C6 cells; 500 μM): statistically significant; rat glioma C6 cell proliferation, significance of the effect (rat glioma C6 cells; 1000 μM): statistically significant; rat glioma C6 cell proliferation (absorbance at 595 nm) (rat glioma C6 cells; 100, 200, 500 or 1000 μM): inhibited rat glioma C6 cell proliferation in a concentration-dependent manner
CC(=O)Oc1ccc(O)cc1S(=O)(=O)[O-].[K+] [2A-5HBS, potassium 2-acetoxy-5-hydroxybenzene sulfonate] | caused the inhibition of rat glioma cell proliferation | inhibition of mitogenesis | occupy a site that is very close to the one that has been described occupied by 2,5-dihydroxybenzene sulfonic acid | – | –
CC(=O)Oc1ccc(O)c(S(=O)(=O)[O-])c1.[K+] [5A-2HBS, potassium 5-acetoxy-2-hydroxybenzene sulfonate] | caused the inhibition of rat glioma cell proliferation | inhibition of mitogenesis | occupy a site that is very close to the one that has been described occupied by 2,5-dihydroxybenzene sulfonic acid | – | –
CC(=O)Oc1ccc(OC(C)=O)c(S(=O)(=O)[O-])c1.[K+] [DABS, potassium 2,5-diacetoxybenzene sulfonate] | – | inhibition of mitogenesis | occupy a site that is very close to the one that has been described occupied by 2,5-dihydroxybenzene sulfonic acid | even less | probability of being tumor-free (χ2 test) versus group treated with DHBS [3]: greater probability of being tumor-free; tumor cells in apoptosis in glioma sections (hematoxylin and eosin) [4]: a large number of tumor cells in apoptosis; weight of the extracted tumor when treatment ended [5]: significant reduction; tumor growth (tumor volume measured through the skin) ([5]; started 10 days after implantation): significantly reduced
O=S(=O)([O-])c1cc(O)ccc1O.[K+] [DHBS, potassium 2,5-dihydroxybenzene sulfonate, reference compound] | – | inhibition of the mitogenesis | – | less than that of the rats treated with carrier | –
